Data taken from US10478421B1, “Sortilin binding compounds, formulations, and uses thereof” (University of Florida, priority 2016, dated 2019).
pKd: −log10 of the molar value.

Key:
McA cells = assay: LDH release into medium (viability of McA cells); type: cell-based, rat; conditions: incubation with compound (10 μM cpd984, 18 h)
hsortilin [1] = molecular target: T1, hsortilin (Homo sapiens, UniProt Q99523); assay: SPR binding of 541 and 984 to hsortilin (Example 4)
T1 sequence (Q99523 78-831): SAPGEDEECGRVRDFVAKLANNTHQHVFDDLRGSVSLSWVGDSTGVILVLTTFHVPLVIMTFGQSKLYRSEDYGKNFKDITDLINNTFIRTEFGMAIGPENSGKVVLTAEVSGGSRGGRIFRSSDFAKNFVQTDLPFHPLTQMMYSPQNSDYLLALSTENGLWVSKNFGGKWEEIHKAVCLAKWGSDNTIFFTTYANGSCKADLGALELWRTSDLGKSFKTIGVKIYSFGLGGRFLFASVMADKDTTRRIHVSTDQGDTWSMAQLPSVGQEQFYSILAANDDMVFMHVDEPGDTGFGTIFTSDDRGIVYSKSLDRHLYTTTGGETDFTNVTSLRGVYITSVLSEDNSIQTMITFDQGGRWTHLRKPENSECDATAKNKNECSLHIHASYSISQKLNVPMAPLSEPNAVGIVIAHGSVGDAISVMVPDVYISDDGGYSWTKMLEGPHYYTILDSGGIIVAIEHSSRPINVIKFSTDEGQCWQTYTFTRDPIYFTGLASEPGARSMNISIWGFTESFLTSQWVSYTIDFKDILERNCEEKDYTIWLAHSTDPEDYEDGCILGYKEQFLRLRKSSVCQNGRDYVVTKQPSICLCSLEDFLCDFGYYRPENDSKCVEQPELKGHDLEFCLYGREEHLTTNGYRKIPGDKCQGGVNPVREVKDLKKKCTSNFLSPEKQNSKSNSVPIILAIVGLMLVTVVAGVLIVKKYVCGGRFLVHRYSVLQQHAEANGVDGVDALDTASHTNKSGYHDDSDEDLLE
Experimental: Due to inherent fluorescence of 541 small molecule, thermophoresis was performed in two different buffer conditions (PBS n=3 and MST n=2) and at two sets of concentration ranges. […] SPR indicates a high and low affinity binding site of cpd984 to human sortilin of hsortilin with Kd of about 200 μM and about 20 nM.

PCSK9 = assay: Cellular PCSK9 by immunoblot in McA cells; type: cell-based, rat; conditions: 10 μM, 18 h, 1% BSA/DMEM
Experimental: McA cells were incubated in 1% BSA/DMEM with DMSO, 541 (10 μM) or 984 (10 μM) for 18 h. Cellular proteins were extracted and analyzed by IB for LDLR (LS-C146979, 1:2000) (FIG. 5A) or PCSK9 (Ab125251, 1:2000) (FIG. 5B) using HRP-linked secondary antibody and ECL detection. Loading controls included β-ACTIN (Rockland ph600-401-886) and GAPDH (cb1001mAb (6C5). Band intensities were measured using ChemiDocXRS+ system and evaluated using ImageLab 5.1 software (BioRad). Results are average of triplicates ±S.D. PCSK9 is a known ligand for sortilin where sortilin acts as a chaperone for PCSK9 secretion.

McArdle rat hepatocytes = assay: VLDL-apo E secretion by McArdle rat hepatocytes (slot blotting); type: cell-based; conditions: 0.1-25 μM, 14-18 h
Experimental: McArdle rat hepatocytes were incubated with five media concentrations 0 (no cpd), 1 (0.1 μM), 2 (1 μM), 3 (10 μM) and 4 (25 μM) of cpd984 (FIG. 7A), cpd541 (FIG. 7B), or with a combination of both compounds (FIG. 7C) at indicated concentrations. Hepatocytes were incubated overnight (14-18 h) and media were collected and VLDL-B100 and VLDL-apo E were detected by slot blotting as described above. An anti-rat apoE antibody was used for measurement of VLDL-apo E secretion. Results are the average of triplicate analysis in one study.

hsortilin [2] = molecular target: T2, hsortilin (Homo sapiens, UniProt Q99523); assay: Surface plasmon resonance on hsortilin immobilized on CM7 chips (Example 2); type: binding
T2 construct: Human sortilin (hsortilin) (Ser78-Asn755) with C-terminal 6-His tag; purchased R&D Systems, Inc. (Minneapolis, Minn.)
T2 sequence (Q99523 78-755): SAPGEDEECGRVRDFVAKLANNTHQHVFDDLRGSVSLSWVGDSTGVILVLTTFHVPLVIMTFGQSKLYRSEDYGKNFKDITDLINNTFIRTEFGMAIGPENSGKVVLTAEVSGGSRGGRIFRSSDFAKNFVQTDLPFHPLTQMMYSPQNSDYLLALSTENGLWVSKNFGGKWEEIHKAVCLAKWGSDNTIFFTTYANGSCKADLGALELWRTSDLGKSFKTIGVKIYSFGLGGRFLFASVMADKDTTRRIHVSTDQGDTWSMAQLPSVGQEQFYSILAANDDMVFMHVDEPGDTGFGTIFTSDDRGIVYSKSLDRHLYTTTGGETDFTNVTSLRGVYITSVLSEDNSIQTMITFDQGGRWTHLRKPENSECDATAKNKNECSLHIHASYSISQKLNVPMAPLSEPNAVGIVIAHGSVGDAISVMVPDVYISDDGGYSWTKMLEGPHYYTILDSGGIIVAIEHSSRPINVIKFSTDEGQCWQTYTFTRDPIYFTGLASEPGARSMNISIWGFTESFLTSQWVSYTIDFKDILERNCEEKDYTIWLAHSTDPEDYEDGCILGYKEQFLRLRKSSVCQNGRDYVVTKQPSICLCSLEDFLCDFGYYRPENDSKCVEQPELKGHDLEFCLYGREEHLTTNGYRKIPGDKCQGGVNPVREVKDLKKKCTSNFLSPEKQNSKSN
Experimental: Surface plasmon resonance (SPR) measurements were performed on a Biacore T200 instrument equipped with two separate CM7 sensor chips, one with about 20,000 response units (RU) and another with about 27,000 RU of hsortilin covalently immobilized. […] For all other SPR injections, regeneration consisted of injections of running buffer alone. GE BIAcore T200 evaluation software version 3.0 (BIAevaluate) was used to analyze and export results. […] PIP3 containing nanodiscs were flowed at 2:1 dilutions to obtain kinetic data fitted using about 27,000 RU CM7 surface. Kinetic fit generated with BIAevaluate and local Rmax using Langmuir 1:1 binding model exported from BIAevaluate to Microsoft Excel 2016 with fit indicated by the black line.

| SMILES | LDH release / toxicity (McA cells) | pKd (hsortilin [1]; two trials) | effect on cellular PCSK9 (PCSK9) | effect on VLDL-apoE secretion (McArdle rat hepatocytes) | effect on NT binding to hsortilin by SPR (hsortilin [2]) | LDH release / toxicity (McA cells; listed as 984) | pKd (hsortilin [1]; high affinity binding site) | pKd (hsortilin [1]; low affinity binding site) | increase of binding of C-term NT (SITE 1) to hsortilin when incubated with 984 (hsortilin [2]) |
| --- | --- | --- | --- | --- | --- | --- | --- | --- | --- |
| CC(NC(=O)c1ccccc1NCC(=O)O)c1ccccc1 (stereo not shown) [cpd541] | non-toxic | 5.12 | no biological difference | decreases | competes for NT binding |  |  |  |  |
| CN1CCC[C@H]1C(=O)Nc1cccc(NC(=O)CCc2ccccc2)c1 [cpd984, (2S)-1-methyl-N-{3-[(3-phenylpropanoyl)-amino]phenyl} pyrrolidine-2-carboxamide] | no significant release of LDH |  | accumulation of cellular PCSK9 | increases | enhances NT binding | non-toxic | ~7.70 | ~3.70 | 100 fold |
